In US20210318318A1, “Kinase Activity In Tumors” (Institute For Cancer Research d/b/a The Research Institute …, priority 2018, published 2021):

Assays:
MRCKB = biological target: T1, MRCKB (Homo sapiens, UniProt Q9Y5S2); assay: MIB/MS kinome profiling of inhibitor-treated OVSAHO cells; type: cell-based; conditions: 2 μM, 4 hour treatment
T1 construct: endogenous in cells; host or cells: OVSAHO
Method: (§1) OVSAHO cells were treated with inhibitors at a dose of 2 μM for 4 hours and kinase inhibition profiles determined by MIB/MS. Bar graph depicts % of kinase bound to MIBs relative to DMSO control as determined by label free quantitation.
(§2) OVSAHO cells were treated with 2 μM of inhibitor for 4 hours and analyzed by MIB/MS. Scatterplot depicts difference in kinase MIB-binding of drug treated relative to control DMSO as determined by Students T-test.
(§3) MIB-based kinome profiling was performed on several of these molecules in HGSOC cells to determine kinome-wide inhibition profiles.
(§4) Experiments using MIB/MS were performed as previously described (Duncan et al., Cell, 2012, 149, 307-321; and Kurimchak et al., Cell Reports, 2016, 16, 1273-1286). Briefly, cells or tumors were lysed on ice in buffer containing 50 mM HEPES (pH 7.5), 0.5% Triton X-100, 150 mM NaCl, 1 mM EDTA, 1 mM EGTA, 10 mM sodium fluoride, 2.5 mM sodium orthovanadate, 1× protease inhibitor cocktail (Roche), and 1% each of phosphatase inhibitor cocktails 2 and 3 (Sigma). Particulate was removed by centrifugation of lysates at 13,000 rpm for 10 minutes at 4° C. and filtration through 0.2 μm syringe filters. Protein concentrations were determined by BCA analysis (Thermo). To compare kinome signatures within and across such large sample sizes, a super-SILAC method was designed (Neubert et al., Nat. Meth., 2010, 7, 361-362) consisting of a cocktail of cancer cell lines that encompasses the activity of the “cancer kinome” to be used as a control for individual samples. Five cancer cell lines were selected from the NCI-60 panel (UACC257, MOLT4, COL0205, ACHN and PC3) that differed in their origin, gene expression patterns and mutation status. The cancer cell lines were labeled using SILAC and mixed equally providing a diverse SILAC ([^13C6,^15N4] arginine (Arg^10) and […] (Lys^8)) heavy kinome reference standard (HKS) to be used repeatedly in kinome profiling assays. An equal amount of the HKS was added to the non-labeled sample (cell, tumor or normal tissue) providing a quantitative strategy to compare kinome activity/levels across samples, amongst treatments and, importantly, across time. […]
(§5) Proteolytic peptides were resuspended in 0.1% formic acid and separated with a Thermo RSLC Ultimate 3000 on a Thermo Easy-Spray C18 PepMap 75 μm×50 cm C-18 2 μm column with a 240 minute gradient of 4-25% acetonitrile with 0.1% formic acid at 300 nL/min and 50° C. Eluted peptides were analyzed by a Thermo Q Exactive plus mass spectrometer utilizing a top 15 methodology in which the 15 most intense peptide precursor ions were subjected to fragmentation.

COV362 = assay: Short-term growth assay (CellTiter-Glo cell viability), kinase inhibitors; type: cell-based, human; conditions: increasing concentrations, Cell Titer Glo
Method: Cell viability was determined by Cell Titer Glo analysis.
COV362 cells were treated with increasing concentrations of A-674563 and cell viability assessed by Cell Titer Glo according to manufacturer's instructions. Data represent the mean of six replicates.
To explore the therapeutic potential of the HGSOC kinome signature, a detailed molecular analysis of protein levels/activity, growth and survival functions was carried out in a panel of recently validated HGSOC cell lines (Coscia et al., Nat. Commun., 2016, 7, 12645) that harbor commonly encountered HGSOC mutations and genetic rearrangements (see, FIG. 5A).
For short-term growth assays, 3000-5000 cells were plated per well in 96-well plates and allowed to adhere and equilibrate overnight. Drug was added the following morning and after 120 hours of drug treatment, cell viability was assessed using the CellTiter-Glo Luminescent cell viability assay according to manufacturer (Promega). Students t tests were performed for statistical analyses and p values ≤0.05 were considered significant. For colony formation assays, cells were plated in 24-well dishes (3000-5000 cells per well) and incubated overnight before continuous drug treatment for 14 days, with drug and media replaced twice weekly. At the end of treatment, cells were rinsed with PBS and fixed with chilled methanol for 10 minutes at −20° C. Methanol was removed by aspiration, and cells were stained with 0.5% crystal violet in 20% methanol for 20 minutes at room temperature, washed with distilled water, and scanned.

MRCKA = MRCKA (Homo sapiens, UniProt Q5VT25); assay: MIB/MS kinome profiling of inhibitor-treated OVSAHO cells; type: cell-based; parameters: endogenous in cells; host or cells: OVSAHO; conditions: 2 μM, 4 hour treatment
Method: as §1, §2, §3, §4, §5

HGSOC cells = assay: Apoptosis in inhibitor-treated HGSOC cells; type: cell-based, human; conditions: increasing doses
[1] = tested on: FAK1, MLC and Paxillin phosphorylation; FAK1 and CHEK1 protein levels; assay: Western blot of signaling in inhibitor-treated HGSOC cells; type: cell-based, human; conditions: 48 hours
Method: COV362 cells were treated with 0.5, 1 or 3 μM of A-674563 or SB-772077 for 48 hours and signaling monitored by western blot.
Samples were harvested in MIB lysis buffer, subjected to SDS-PAGE […] and transferred to PVDF membranes before western blotting with primary antibodies. For pMYPT and pMLC blots, cells were harvested in a buffer containing 1% (w/v) SDS, 50 mM Tris pH 7.5 supplemented with protease and phosphatase inhibitors buffer and were passed through QIAshredder columns (Qiagen, 79654), (Unbekandt et al., Cell Commun. Signal., 2014, 12, 54). For the list of primary antibodies used, see Table 4. Secondary HRP-anti-rabbit and HRP-anti-mouse were obtained from ThermoFisher Scientific. SuperSignal West Pico and Femto Chemiluminescent Substrates (Thermo) were used to visualize blots.

ROCK2 = biological target: T2, ROCK2 (Homo sapiens, UniProt O75116); assay: MIB/MS kinome profiling of inhibitor-treated OVSAHO cells; type: cell-based; conditions: 2 μM, 4 hours
T2 construct: endogenous in cells; host or cells: OVSAHO
Method: as §2, §3
Experiments using MIB/MS were performed as previously described (Duncan et al., Cell, 2012, 149, 307-321; and Kurimchak et al., Cell Reports, 2016, 16, 1273-1286). Briefly, cells or tumors were lysed on ice in buffer containing 50 mM HEPES (pH 7.5), 0.5% Triton X-100, 150 mM NaCl, 1 mM EDTA, 1 mM EGTA, 10 mM sodium fluoride, 2.5 mM sodium orthovanadate, 1× protease inhibitor cocktail (Roche), and 1% each of phosphatase inhibitor cocktails 2 and 3 (Sigma). Particulate was removed by centrifugation of lysates at 13,000 rpm for 10 minutes at 4° C. and filtration through 0.2 μm syringe filters. Protein concentrations were determined by BCA analysis (Thermo). To compare kinome signatures within and across such large sample sizes, a super-SILAC method was designed (Neubert et al., Nat. Meth., 2010, 7, 361-362) consisting of a cocktail of cancer cell lines that encompasses the activity of the “cancer kinome” to be used as a control for individual samples. […] An equal amount of the HKS was added to the non-labeled sample (cell, tumor or normal tissue) providing a quantitative strategy to compare kinome activity/levels across samples, amongst treatments and, importantly, across time. […]
as §5

T1 sequence (Q9Y5S2 whole entry): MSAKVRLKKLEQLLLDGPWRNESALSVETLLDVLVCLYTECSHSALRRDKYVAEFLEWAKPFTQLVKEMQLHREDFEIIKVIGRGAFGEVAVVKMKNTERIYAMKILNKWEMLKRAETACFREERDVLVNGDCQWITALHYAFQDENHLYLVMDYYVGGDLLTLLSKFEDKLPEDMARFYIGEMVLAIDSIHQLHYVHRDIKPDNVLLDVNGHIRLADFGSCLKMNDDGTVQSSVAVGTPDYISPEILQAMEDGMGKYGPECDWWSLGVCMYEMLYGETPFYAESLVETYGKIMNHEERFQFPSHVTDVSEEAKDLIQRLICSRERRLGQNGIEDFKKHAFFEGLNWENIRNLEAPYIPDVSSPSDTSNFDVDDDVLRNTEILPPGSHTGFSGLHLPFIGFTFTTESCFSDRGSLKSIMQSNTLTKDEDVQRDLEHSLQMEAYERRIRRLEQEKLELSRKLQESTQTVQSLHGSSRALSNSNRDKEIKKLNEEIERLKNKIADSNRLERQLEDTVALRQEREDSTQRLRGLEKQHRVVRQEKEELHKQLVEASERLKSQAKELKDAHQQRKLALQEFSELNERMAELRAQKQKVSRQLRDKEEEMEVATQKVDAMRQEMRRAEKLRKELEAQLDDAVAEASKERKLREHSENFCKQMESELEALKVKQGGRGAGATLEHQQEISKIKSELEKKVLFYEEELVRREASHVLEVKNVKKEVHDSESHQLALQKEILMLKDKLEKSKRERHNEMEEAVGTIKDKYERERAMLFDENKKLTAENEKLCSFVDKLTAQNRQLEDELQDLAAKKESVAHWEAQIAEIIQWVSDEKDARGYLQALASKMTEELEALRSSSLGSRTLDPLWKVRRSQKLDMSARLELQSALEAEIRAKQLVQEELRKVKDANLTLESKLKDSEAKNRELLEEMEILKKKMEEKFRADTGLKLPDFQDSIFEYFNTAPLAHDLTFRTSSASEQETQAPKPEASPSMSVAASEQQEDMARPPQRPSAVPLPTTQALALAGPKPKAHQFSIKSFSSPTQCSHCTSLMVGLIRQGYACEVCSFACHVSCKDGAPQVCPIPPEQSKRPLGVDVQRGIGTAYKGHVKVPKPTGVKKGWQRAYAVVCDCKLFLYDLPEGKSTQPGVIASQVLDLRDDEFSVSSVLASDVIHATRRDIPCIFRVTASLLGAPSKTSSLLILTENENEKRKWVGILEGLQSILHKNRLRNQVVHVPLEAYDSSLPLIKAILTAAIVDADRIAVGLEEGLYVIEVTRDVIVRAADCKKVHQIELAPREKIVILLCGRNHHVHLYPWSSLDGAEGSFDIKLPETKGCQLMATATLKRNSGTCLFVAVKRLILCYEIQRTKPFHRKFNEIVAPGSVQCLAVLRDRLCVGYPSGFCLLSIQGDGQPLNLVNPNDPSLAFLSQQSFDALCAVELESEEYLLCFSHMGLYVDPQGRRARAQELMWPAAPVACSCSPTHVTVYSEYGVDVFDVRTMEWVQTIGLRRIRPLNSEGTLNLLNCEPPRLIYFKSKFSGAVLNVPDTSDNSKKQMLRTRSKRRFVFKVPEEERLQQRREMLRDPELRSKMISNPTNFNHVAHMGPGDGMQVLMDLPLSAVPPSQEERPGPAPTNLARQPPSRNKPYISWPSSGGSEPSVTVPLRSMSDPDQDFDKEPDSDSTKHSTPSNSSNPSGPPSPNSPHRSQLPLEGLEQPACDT
T2 sequence (O75116 whole entry): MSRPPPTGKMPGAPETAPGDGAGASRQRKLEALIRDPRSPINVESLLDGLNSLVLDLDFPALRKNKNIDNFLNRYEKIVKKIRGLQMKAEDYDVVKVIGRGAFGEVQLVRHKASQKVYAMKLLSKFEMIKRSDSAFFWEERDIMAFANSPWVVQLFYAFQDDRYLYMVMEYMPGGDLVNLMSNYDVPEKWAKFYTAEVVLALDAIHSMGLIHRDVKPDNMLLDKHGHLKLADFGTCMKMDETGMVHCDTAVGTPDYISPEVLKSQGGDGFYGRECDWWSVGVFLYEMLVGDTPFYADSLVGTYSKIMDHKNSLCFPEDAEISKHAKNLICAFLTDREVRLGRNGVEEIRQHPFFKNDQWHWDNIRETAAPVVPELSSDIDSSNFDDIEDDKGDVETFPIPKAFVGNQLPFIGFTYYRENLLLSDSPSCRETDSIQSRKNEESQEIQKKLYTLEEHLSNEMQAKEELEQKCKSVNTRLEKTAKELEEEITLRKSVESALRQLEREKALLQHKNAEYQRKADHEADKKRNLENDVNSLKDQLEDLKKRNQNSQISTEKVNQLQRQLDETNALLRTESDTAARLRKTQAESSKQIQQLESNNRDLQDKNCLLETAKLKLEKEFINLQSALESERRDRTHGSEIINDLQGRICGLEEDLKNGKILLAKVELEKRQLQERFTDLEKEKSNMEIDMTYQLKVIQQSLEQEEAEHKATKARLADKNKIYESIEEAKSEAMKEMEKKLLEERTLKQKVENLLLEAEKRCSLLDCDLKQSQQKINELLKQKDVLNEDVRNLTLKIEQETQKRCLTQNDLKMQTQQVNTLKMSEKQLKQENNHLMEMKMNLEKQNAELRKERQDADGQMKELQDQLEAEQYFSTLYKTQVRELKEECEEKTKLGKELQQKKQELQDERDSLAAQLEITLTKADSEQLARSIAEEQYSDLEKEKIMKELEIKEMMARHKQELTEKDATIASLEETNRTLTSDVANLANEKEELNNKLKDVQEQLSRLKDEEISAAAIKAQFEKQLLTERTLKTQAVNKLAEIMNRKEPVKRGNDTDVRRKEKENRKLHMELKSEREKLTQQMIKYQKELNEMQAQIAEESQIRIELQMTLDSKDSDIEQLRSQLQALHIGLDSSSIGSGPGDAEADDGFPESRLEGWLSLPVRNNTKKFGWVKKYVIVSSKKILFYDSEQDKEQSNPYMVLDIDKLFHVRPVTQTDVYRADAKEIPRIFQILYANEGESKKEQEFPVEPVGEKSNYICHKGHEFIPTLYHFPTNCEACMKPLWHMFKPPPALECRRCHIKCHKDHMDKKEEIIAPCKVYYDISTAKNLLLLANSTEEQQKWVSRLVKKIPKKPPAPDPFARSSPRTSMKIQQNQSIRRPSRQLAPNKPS
MRCKA, sequence (Q5VT25 whole entry): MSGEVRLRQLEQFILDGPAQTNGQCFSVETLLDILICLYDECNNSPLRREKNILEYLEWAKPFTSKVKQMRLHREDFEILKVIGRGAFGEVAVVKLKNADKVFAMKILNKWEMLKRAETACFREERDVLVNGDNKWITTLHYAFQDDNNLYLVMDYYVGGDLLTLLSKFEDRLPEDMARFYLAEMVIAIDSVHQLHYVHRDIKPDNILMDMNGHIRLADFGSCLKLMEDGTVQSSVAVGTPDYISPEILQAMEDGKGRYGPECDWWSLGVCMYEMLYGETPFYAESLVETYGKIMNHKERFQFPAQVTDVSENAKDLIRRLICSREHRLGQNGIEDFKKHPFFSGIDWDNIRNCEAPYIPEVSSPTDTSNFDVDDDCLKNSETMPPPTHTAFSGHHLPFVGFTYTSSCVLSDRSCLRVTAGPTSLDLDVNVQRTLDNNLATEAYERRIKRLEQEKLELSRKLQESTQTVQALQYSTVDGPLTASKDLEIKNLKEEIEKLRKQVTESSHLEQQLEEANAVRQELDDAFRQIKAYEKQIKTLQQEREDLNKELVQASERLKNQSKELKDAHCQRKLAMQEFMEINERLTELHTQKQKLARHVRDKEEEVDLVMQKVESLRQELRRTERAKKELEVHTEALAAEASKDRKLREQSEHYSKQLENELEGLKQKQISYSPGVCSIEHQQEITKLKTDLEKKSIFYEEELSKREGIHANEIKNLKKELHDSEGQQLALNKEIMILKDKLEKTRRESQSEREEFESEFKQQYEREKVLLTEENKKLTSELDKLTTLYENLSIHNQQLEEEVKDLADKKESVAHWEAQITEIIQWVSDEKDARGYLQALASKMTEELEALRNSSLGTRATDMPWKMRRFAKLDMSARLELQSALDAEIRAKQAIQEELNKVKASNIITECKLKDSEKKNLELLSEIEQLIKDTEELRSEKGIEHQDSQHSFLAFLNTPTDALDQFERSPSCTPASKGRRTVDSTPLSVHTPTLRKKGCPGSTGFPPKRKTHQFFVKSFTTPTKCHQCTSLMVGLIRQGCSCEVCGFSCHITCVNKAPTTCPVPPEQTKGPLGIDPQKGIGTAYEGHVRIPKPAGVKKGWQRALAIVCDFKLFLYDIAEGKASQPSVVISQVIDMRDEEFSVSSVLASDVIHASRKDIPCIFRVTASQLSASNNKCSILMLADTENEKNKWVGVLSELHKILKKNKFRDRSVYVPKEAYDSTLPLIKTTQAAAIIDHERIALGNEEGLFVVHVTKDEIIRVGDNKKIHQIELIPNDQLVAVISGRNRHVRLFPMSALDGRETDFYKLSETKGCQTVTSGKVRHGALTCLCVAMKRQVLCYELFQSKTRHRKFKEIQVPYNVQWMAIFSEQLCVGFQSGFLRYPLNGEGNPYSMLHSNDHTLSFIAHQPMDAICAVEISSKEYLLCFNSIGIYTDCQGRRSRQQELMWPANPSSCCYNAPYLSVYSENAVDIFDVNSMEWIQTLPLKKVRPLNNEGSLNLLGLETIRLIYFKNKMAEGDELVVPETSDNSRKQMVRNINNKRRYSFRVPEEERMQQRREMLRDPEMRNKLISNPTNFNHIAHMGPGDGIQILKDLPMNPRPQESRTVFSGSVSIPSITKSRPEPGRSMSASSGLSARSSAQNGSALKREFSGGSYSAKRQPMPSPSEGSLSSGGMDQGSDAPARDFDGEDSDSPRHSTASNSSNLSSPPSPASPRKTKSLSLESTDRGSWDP

`Cc1[nH]nc2ccc(-c3cncc(OC[C@@H](N)Cc4ccccc4)c3)cc12` [A-674563] was tested, and the “MIB-binding of MRCKB relative to DMSO” value (MRCKB) was “Reduced MIB-binding”, the cell viability (COV362) was “inhibited cell viability” and the “MIB-binding of MRCKA relative to DMSO” value (MRCKA) was “greatest reduction”. The apoptosis (HGSOC cells) was “induced apoptosis”, the “FAK1 and CHEK1 protein levels” value ([1]; HGSOC (COV362) cells, 0.5, 1 or 3 μM) was “uniquely reduced” and the “FAK1, MLC and Paxillin phosphorylation” value ([1]; HGSOC (COV362) cells, increasing doses 0.5, 1 or 3 μM) was “inhibited”. For the same compound, the “MIB-binding of ROCK2” value (ROCK2) was “did not influence”.
